Series [1] concerns FXR-regulated gene expression in human HuH7 hepatoma cells. Briefly: cells. Particulars: Huh-7, 11 h.
Description: EC50 values for FXR-regulated gene expression were determined using a cell-based RNA assay.
The conditions of series [2]: cited from earlier work.
For series [3] the following is noted: male, human, in vivo.
Description: (§1) SSAO inhibition was determined by measuring relative reductions in plasma H2O2 generation after addition of an exogenous substrate (benzylamine). […] Safety was assessed for 7 (±3) days after dosing.
(§2) Plasma PK parameters were determined by non-compartmental analysis. […] Percent change in total amine oxidase activity was determined relative to the corresponding pre-dose (baseline) samples.
Series [4] in a line: Single-ascending dose clinical trial: plasma PK and safety.
Description: as §1, §2

Where a name gives a salt, the structure may show the parent alone. Read-outs that look alike come from different tables or passages of the source.

With `CC[C@H]1[C@@H](O)[C@@H]2[C@H](CC[C@]3(C)[C@@H]([C@H](C)CCC(=O)O)CC[C@@H]23)[C@@]2(C)CC[C@@H](O)C[C@@H]12` [OCA, obeticholic acid, reference compound], the EC50 in series [1] (read-out: EC50, BSEP Gene induction/HuH7) worked out at 200 nM; in series [1] (read-out: EC50, FGF-19 Gene Induction/HuH7), 130 nM; in series [1] (read-out: EC50, SHP Gene induction/HuH7), 200 nM. In series [2], the “pruritus in longer term studies” value is “known to result in pruritus”.
Consider `O=C(O)c1cc(F)c2nc(N3[C@@H]4CC[C@H]3C[C@@H](OCc3c(-c5ccccc5OC(F)(F)F)noc3C3CC3)C4)sc2c1` [tropifexor], for which the “pruritus in longer term studies” value in series [2] was “known to result in pruritus”.
`O=C(O)c1ccnc(N2CC(O)(c3ccc(OCc4c(-c5c(Cl)cccc5Cl)noc4C4CC4)cc3Cl)C2)c1` [cilofexor]: in series [2], the “pruritus in longer term studies” value is recorded as “known to result in pruritus”.
`COC1CCN(c2ncc(OC/C(=C/F)CN)cn2)CC1` [tosylate salt of Compound 2]: the “TEAE frequency: oral herpes” value in series [3] was 1 (3.1). In series [4] (1 mg or placebo (n = 8)), the “Subject incidence of TEAEs considered possibly treatment-related” value is reported as 0, the “Subject incidence of any TEAE” value was found to be 0, the “TEAE frequency: constipation” value is recorded as 0 and the “TEAE frequency: contact dermatitis” value is 0. Besides, in series [4] (1 mg or placebo (n = 8)), the “TEAE frequency: dysgeusia” value stood at 0, the “TEAE frequency: headache” value came to 0, the “TEAE frequency: sore throat” value is reported as 0 and the “TEAE frequency: upper respiratory tract infection” value worked out at 0. Also, in series [4] (3 mg or placebo (n = 8)), the “Subject incidence of TEAEs considered possibly treatment-related” value is listed as 0, the “Subject incidence of any TEAE” value came to 0, the “TEAE frequency: constipation” value is recorded as 0 and the “TEAE frequency: contact dermatitis” value amounted to 0. For the same molecule, in series [4] (3 mg or placebo (n = 8)), the “TEAE frequency: dysgeusia” value was determined as 0, the “TEAE frequency: headache” value is 0, the “TEAE frequency: sore throat” value is listed as 0 and the “TEAE frequency: upper respiratory tract infection” value stood at 0. Moreover, in series [4] (6 mg (n = 8)), the “Subject incidence of TEAEs considered possibly treatment-related” value is reported as 0, the “Subject incidence of any TEAE” value is 2 (25), the “TEAE frequency: constipation” value was 0 and the “TEAE frequency: contact dermatitis” value was 2 (25). Besides, in series [4] (6 mg (n = 8)), the “TEAE frequency: dysgeusia” value came out at 0, the “TEAE frequency: headache” value worked out at 0, the “TEAE frequency: sore throat” value is on record as 1 (12.5) and the “TEAE frequency: upper respiratory tract infection” value came to 0. In addition, in series [4] (10 mg or placebo (n = 8)), the “Subject incidence of TEAEs considered possibly treatment-related” value is 1 (12.5), the “Subject incidence of any TEAE” value is reported as 3 (37.5), the “TEAE frequency: constipation” value is given as 1 (12.5) and the “TEAE frequency: contact dermatitis” value amounted to 0. Also, in series [4] (10 mg or placebo (n = 8)), the “TEAE frequency: dysgeusia” value is 1 (12.5), the “TEAE frequency: headache” value is recorded as 1 (12.5), the “TEAE frequency: sore throat” value was found to be 0 and the “TEAE frequency: upper respiratory tract infection” value is recorded as 1 (12.5). Also, in series [4] (All (n = 32)), the “Subject incidence of TEAEs considered possibly treatment-related” value was 1 (3.1), the “Subject incidence of any TEAE” value is recorded as 5 (15.6), the “TEAE frequency: constipation” value is on record as 1 (3.1) and the “TEAE frequency: contact dermatitis” value is reported as 2 (6.3). For the same molecule, in series [4] (All (n = 32)), the “TEAE frequency: dysgeusia” value is 1 (3.1), the “TEAE frequency: headache” value was 1 (3.1), the “TEAE frequency: sore throat” value was 1 (3.1) and the “TEAE frequency: upper respiratory tract infection” value was 1 (3.1). The clearance from plasma result in series [4] (single doses, healthy humans) is “rapidly cleared from plasma”.
Regarding `CC[C@H]1[C@@H](O)[C@@H]2[C@H](CC[C@]3(C)[C@@H]([C@H](C)CCNC(=O)NS(=O)(=O)c4ccc(C(C)(C)C)cc4)CC[C@@H]23)[C@@]2(C)CC[C@@H](O)C[C@@H]12` [EDP-305], in series [2], the “pruritus in longer term studies” value is “known to result in pruritus”.

(Values after patent US20210379040A1, “COMBINATION TREATMENT OF LIVER DISORDERS” (Terns Pharmaceuticals, Inc., priority 2020, published 2021).)
